Assays:
LOX IMVI = assay: NCI-60 anticancer screen (SRB; single dose and five doses); details: Homo sapiens
IGROV1 = assay: as above; details: Homo sapiens
TK-10 = assay: as above; details: Homo sapiens
HCT-116 = assay: as above; details: Homo sapiens
SR = assay: as above; details: Homo sapiens
CAKI-1 = assay: as above; details: Homo sapiens
RPMI-8226 = assay: as above; details: Homo sapiens
SNB-19 = assay: cells; details: Homo sapiens
HOP-62 = assay: NCI-60 anticancer screen (SRB; single dose and five doses); details: Homo sapiens
SF-539 = assay: as above; details: Homo sapiens
HT29 = assay: as above; details: Homo sapiens
MCF7 = assay: as above; details: Homo sapiens
OVCAR-5 = assay: as above; details: Homo sapiens
SK-OV-3 = assay: as above; details: Homo sapiens
KM12 = assay: as above; details: Homo sapiens
NCI-H23 = assay: as above; details: Homo sapiens
CCRF-CEM = assay: NCI-60 anticancer screen (SRB; single dose 10 μM and five doses); details: Homo sapiens
HS 578T = assay: NCI-60 anticancer screen (SRB; single dose and five doses); details: Homo sapiens
SF-295 = assay: as above; details: Homo sapiens
MDA-MB-231/ATCC = assay: as above; details: Homo sapiens
DU-145 = assay: as above; details: Homo sapiens
EKVX = assay: as above; details: Homo sapiens
OVCAR-4 = assay: as above; details: Homo sapiens
MDA-MB-435 = assay: as above; details: Homo sapiens
NCI/ADR-RES = assay: as above; details: Homo sapiens
SK-MEL-5 = assay: as above; details: Homo sapiens
OVCAR-8 = assay: as above; details: Homo sapiens
HCC-2998 = assay: as above
UO-31 = assay: as above; details: Homo sapiens
[1] = 48 h, read-out: Growth Percentage

`COc1cc(/C=C/C(=O)c2sc(=S)[nH]c2C)cc(OC)c1OC` [2p, (E)-1-(4-Methyl-2-Thioxo-2,3-Dihydrothiazol-5-yl)-3-(3,4,5-Trimethoxyphenyl)Prop-2-En-1-One] showed a GI50 (LOX IMVI) of 3.24 µM, an IC50 (LOX IMVI) of 4.47 µM and an activity at 10 µM (LOX IMVI; [1]) of 17.1%. The CC50 (LOX IMVI; read-out: LC50) was 38.9 µM, the IC (TGI) (LOX IMVI; read-out: TGI) was 12 µM and the GI50 (IGROV1; IGROV-1) was 3.31 µM. It also gave an IC50 (IGROV1; IGROV-1) of 5.75 µM, a CC50 (IGROV1; IGROV-1, read-out: LC50) of over 100 µM and an IC (TGI) (IGROV1; IGROV-1, read-out: TGI) of 13.8 µM. The GI50 (TK-10; TK-10) was 5.01 µM, the IC50 (TK-10; TK-10) was 16.2 µM and the activity at 10 µM (TK-10; TK-10, 48 h, read-out: Growth Percentage) was 53%. For the same compound, the CC50 (TK-10; TK-10, read-out: LC50) was 47.9 µM, the IC (TGI) (TK-10; TK-10, read-out: TGI) was 17.8 µM and the GI50 (HCT-116; HCT-116) was 3.16 µM. The IC50 (HCT-116; HCT-116) was 3.63 µM, the activity at 10 µM (HCT-116; HCT-116, 48 h, read-out: Growth Percentage) was 6.81% and the CC50 (HCT-116; HCT-116, read-out: LC50) was 69.2 µM. It also gave an IC (TGI) (HCT-116; HCT-116, read-out: TGI) of 14.4 µM, a GI50 (SR) of 2.34 µM and an IC50 (SR) of 3.8 µM. For the same compound, the CC50 (SR; read-out: LC50) was over 100 µM, the IC (TGI) (SR; read-out: TGI) was 16.2 µM and the GI50 (CAKI-1; CAKI-1) was 2.57 µM. For the same compound, the IC50 (CAKI-1; CAKI-1) was 4.68 µM, the activity at 10 µM (CAKI-1; CAKI-1, 48 h, read-out: Growth Percentage) was 28.2% and the CC50 (CAKI-1; CAKI-1, read-out: LC50) was 45.7 µM. The IC (TGI) (CAKI-1; CAKI-1, read-out: TGI) was 13.2 µM, the GI50 (RPMI-8226; RPMI-8226) was 2.19 µM and the IC50 (RPMI-8226; RPMI-8226) was 4.47 µM. It also gave an activity at 10 µM (RPMI-8226; RPMI-8226, 48 h, read-out: Growth Percentage) of 5.31%, a CC50 (RPMI-8226; RPMI-8226, read-out: LC50) of over 100 µM and an IC (TGI) (RPMI-8226; RPMI-8226, read-out: TGI) of 9.12 µM. For the same compound, the GI50 (SNB-19; SNB-19) was 5.01 µM, the IC50 (SNB-19; SNB-19) was 13.2 µM and the activity at 10 µM (SNB-19; SNB-19, 48 h, read-out: Growth Percentage) was 19.6%. It also gave a CC50 (SNB-19; SNB-19, read-out: LC50) of 43.6 µM, an IC (TGI) (SNB-19; SNB-19, read-out: TGI) of 17.8 µM and a GI50 (HOP-62; HOP-62) of 3.16 µM. For the same compound, the IC50 (HOP-62; HOP-62) was 5.37 µM, the activity at 10 µM (HOP-62; HOP-62, 48 h, read-out: Growth Percentage) was 4.61% and the CC50 (HOP-62; HOP-62, read-out: LC50) was over 100 µM. For the same compound, the IC (TGI) (HOP-62; HOP-62, read-out: TGI) was 16.2 µM, the GI50 (SF-539; SF-539) was 2.19 µM and the IC50 (SF-539; SF-539) was 4.47 µM. The activity at 10 µM (SF-539; SF-539, 48 h, read-out: Growth Percentage) was -13.9%, the IC (TGI) (SF-539; SF-539, read-out: TGI) was 5.5 µM and the GI50 (HT29; HT-29) was 3.47 µM. For the same compound, the IC50 (HT29; HT-29) was 4.57 µM, the activity at 10 µM (HT29; HT-29, 48 h, read-out: Growth Percentage) was 40.1% and the CC50 (HT29; HT-29, read-out: LC50) was over 100 µM. For the same compound, the IC (TGI) (HT29; HT-29, read-out: TGI) was 13.5 µM, the GI50 (MCF7; MCF7) was 3.02 µM and the IC50 (MCF7; MCF7) was 4.27 µM. It also gave an activity at 10 µM (MCF7; MCF7, 48 h, read-out: Growth Percentage) of 9.35%, a CC50 (MCF7; MCF7, read-out: LC50) of 45.7 µM and an IC (TGI) (MCF7; MCF7, read-out: TGI) of 10.7 µM. For the same compound, the GI50 (OVCAR-5; OVCAR-5) was 3.8 µM, the IC50 (OVCAR-5; OVCAR-5) was 12.3 µM and the activity at 10 µM (OVCAR-5; OVCAR-5, 48 h, read-out: Growth Percentage) was 6.56%. It also gave a CC50 (OVCAR-5; OVCAR-5, read-out: LC50) of 43.6 µM, an IC (TGI) (OVCAR-5; OVCAR-5, read-out: TGI) of 15.1 µM and a GI50 (SK-OV-3; SK-OV-3) of 7.41 µM. For the same compound, the IC50 (SK-OV-3; SK-OV-3) was 46.8 µM, the activity at 10 µM (SK-OV-3; SK-OV-3, 48 h, read-out: Growth Percentage) was 31.2% and the CC50 (SK-OV-3; SK-OV-3, read-out: LC50) was over 100 µM. For the same compound, the IC (TGI) (SK-OV-3; SK-OV-3, read-out: TGI) was over 100 µM, the GI50 (KM12; KM12) was 3.24 µM and the IC50 (KM12; KM12) was 6.46 µM. For the same compound, the activity at 10 µM (KM12; KM12, 48 h, read-out: Growth Percentage) was 9.52%, the CC50 (KM12; KM12, read-out: LC50) was 42.7 µM and the IC (TGI) (KM12; KM12, read-out: TGI) was 13.8 µM. It also gave a GI50 (NCI-H23; NCI-H23) of 2.95 µM, an IC50 (NCI-H23; NCI-H23) of 5.25 µM and an activity at 10 µM (NCI-H23; NCI-H23, 48 h, read-out: Growth Percentage) of 7.27%. It also gave a CC50 (NCI-H23; NCI-H23, read-out: LC50) of 44.7 µM, an IC (TGI) (NCI-H23; NCI-H23, read-out: TGI) of 10.5 µM and a GI50 (CCRF-CEM) of 2.45 µM. It also gave an activity at 10 µM (CCRF-CEM; [1]) of 4.92%, an IC50 (CCRF-CEM; five-dose, Leukemia CCRF-CEM) of 3.55 µM and an IC (TGI) (CCRF-CEM; read-out: TGI) of 8.71 µM. It also gave a GI50 (HS 578T) of 2.88 µM, an IC50 (HS 578T) of over 100 µM and an activity at 10 µM (HS 578T; [1]) of 3.94%. It also gave a CC50 (HS 578T; read-out: LC50) of over 100 µM, an IC (TGI) (HS 578T; read-out: TGI) of 39.8 µM and a GI50 (SF-295; SF-295) of 5.5 µM. It also gave an IC50 (SF-295; SF-295) of 14.5 µM, an activity at 10 µM (SF-295; SF-295, 48 h, read-out: Growth Percentage) of 42.3% and a CC50 (SF-295; SF-295, read-out: LC50) of 66.1 µM. For the same compound, the IC (TGI) (SF-295; SF-295, read-out: TGI) was 21.4 µM, the GI50 (MDA-MB-231/ATCC; MDA-MB-231) was 3.24 µM and the IC50 (MDA-MB-231/ATCC; MDA-MB-231) was 10 µM. It also gave an activity at 10 µM (MDA-MB-231/ATCC; MDA-MB-231, 48 h, read-out: Growth Percentage) of 2.51%, a CC50 (MDA-MB-231/ATCC; MDA-MB-231, read-out: LC50) of over 100 µM and an IC (TGI) (MDA-MB-231/ATCC; MDA-MB-231, read-out: TGI) of 13.2 µM. The GI50 (DU-145; DU-145) was 3.24 µM, the IC50 (DU-145; DU-145) was 5.75 µM and the activity at 10 µM (DU-145; DU-145, 48 h, read-out: Growth Percentage) was 12.9%. The CC50 (DU-145; DU-145, read-out: LC50) was 69.2 µM, the IC (TGI) (DU-145; DU-145, read-out: TGI) was 15.5 µM and the GI50 (EKVX) was 4.07 µM. The IC50 (EKVX) was 11 µM, the activity at 10 µM (EKVX; [1]) was 23.4% and the CC50 (EKVX; read-out: LC50) was over 100 µM. The IC (TGI) (EKVX; read-out: TGI) was 22.9 µM, the GI50 (OVCAR-4; OVCAR-4) was 2.82 µM and the IC50 (OVCAR-4; OVCAR-4) was 6.61 µM. For the same compound, the activity at 10 µM (OVCAR-4; OVCAR-4, 48 h, read-out: Growth Percentage) was 15.6%, the CC50 (OVCAR-4; OVCAR-4, read-out: LC50) was 51.3 µM and the IC (TGI) (OVCAR-4; OVCAR-4, read-out: TGI) was 12.6 µM. The GI50 (MDA-MB-435; MDA-MB-435) was 2.57 µM, the IC50 (MDA-MB-435; MDA-MB-435) was 4.47 µM and the activity at 10 µM (MDA-MB-435; MDA-MB-435, 48 h, read-out: Growth Percentage) was 11%. The CC50 (MDA-MB-435; MDA-MB-435, read-out: LC50) was over 100 µM, the IC (TGI) (MDA-MB-435; MDA-MB-435, read-out: TGI) was 10.5 µM and the GI50 (NCI/ADR-RES) was 2.4 µM. For the same compound, the IC50 (NCI/ADR-RES) was 4.37 µM, the activity at 10 µM (NCI/ADR-RES; [1]) was 0.58% and the CC50 (NCI/ADR-RES; read-out: LC50) was over 100 µM. It also gave an IC (TGI) (NCI/ADR-RES; read-out: TGI) of 7.41 µM, a GI50 (SK-MEL-5; SK-MEL-5) of 1.58 µM and an IC50 (SK-MEL-5; SK-MEL-5) of 3.31 µM. For the same compound, the activity at 10 µM (SK-MEL-5; SK-MEL-5, 48 h, read-out: Growth Percentage) was -64.6%, the CC50 (SK-MEL-5; SK-MEL-5, read-out: LC50) was 10 µM and the IC (TGI) (SK-MEL-5; SK-MEL-5, read-out: TGI) was 3.98 µM. It also gave a GI50 (OVCAR-8; OVCAR-8) of 2.14 µM, an IC50 (OVCAR-8; OVCAR-8) of 3.55 µM and an activity at 10 µM (OVCAR-8; OVCAR-8, 48 h, read-out: Growth Percentage) of 4.32%. For the same compound, the CC50 (OVCAR-8; OVCAR-8, read-out: LC50) was 45.7 µM, the IC (TGI) (OVCAR-8; OVCAR-8, read-out: TGI) was 5.5 µM and the GI50 (HCC-2998; Homo sapiens, HCC 2998) was 5.13 µM. It also gave an IC50 (HCC-2998; Homo sapiens, HCC 2998) of 11.8 µM, an activity at 10 µM (HCC-2998; Homo sapiens, HCC 2998, 48 h, read-out: Growth Percentage) of 19% and a CC50 (HCC-2998; Homo sapiens, HCC 2998, read-out: LC50) of 44.7 µM. The TGI (HCC-2998; five-dose, Colon Cancer HCC-2998) was 17.38 µM, the GI50 (UO-31; UO-31) was 3.02 µM and the IC50 (UO-31; UO-31) was 7.76 µM. The IC (TGI) (UO-31; UO-31, read-out: TGI) was 15.5 µM.

From publication PMC11435058, “Synthesis of New Thiazole-Privileged Chalcones as Tubulin Polymerization Inhibitors with Potential Anticancer Activities” (Pharmaceuticals, 2024)
